Data as given in ChEMBL document CHEMBL3351789, “Triazolopyridines as selective JAK1 inhibitors: from hit identification to GLPG0634” (J Med Chem, 2014).
Values after ≈ are worked out from the molar mass of the structure shown.

How the values were obtained:
[1] = molecular target: T1, Tyrosine-protein kinase JAK1 (Homo sapiens, UniProt P23458); test: Inhibition of human recombinant JAK1
Homo sapiens [2] = species on record: Homo sapiens; test: Selectivity index, ratio of IC50 for human recombinant TYK2 to IC50 for human recombinant JAK1
Homo sapiens [3] = species on record: Homo sapiens; test: Selectivity index, ratio of IC50 for human recombinant JAK2 to IC50 for human recombinant JAK1
Homo sapiens [4] = species on record: Homo sapiens; test: Selectivity index, ratio of IC50 for human recombinant JAK3 to IC50 for human recombinant JAK1
[5] = Kinetic solubility of the compound at pH 7.4; conditions: buffer
[6] = Bioavailability in rat at 1 mg/kg, iv; assay type: ADME, organism-based; conditions: in vivo
[7] = Clearance in rat at 1 mg/kg, iv; assay type: ADME, organism-based; design: dose 1 mg/kg, route intravenous; conditions: in vivo
[8] = Oral bioavailability in rat at 5 mg/kg; assay type: ADME, organism-based; conditions: in vivo
[9] = Half life in rat at 5 mg/kg, po; assay type: ADME, organism-based; design: dose 5 mg/kg, route oral; conditions: in vivo
[10] = Half life in rat at 1 mg/kg, iv; assay type: ADME, organism-based; design: dose 1 mg/kg, route intravenous; conditions: in vivo
[11] = AUC (0 to infinity) in rat at 1 mg/kg, iv; assay type: ADME, organism-based; design: time infinity, dose 1 mg/kg, route intravenous; conditions: plasma
[12] = AUC (0 to infinity) in rat at 5 mg/kg, po; assay type: ADME, organism-based; design: time infinity, dose 5 mg/kg, route oral; conditions: plasma
[13] = molecular target: T2, Tyrosine-protein kinase JAK2 (Homo sapiens, UniProt O60674); test: Inhibition of JAK2 in human whole blood assessed as inhibition of GM-CSF-induced pSTAT5
T2 sequence (O60674 whole entry): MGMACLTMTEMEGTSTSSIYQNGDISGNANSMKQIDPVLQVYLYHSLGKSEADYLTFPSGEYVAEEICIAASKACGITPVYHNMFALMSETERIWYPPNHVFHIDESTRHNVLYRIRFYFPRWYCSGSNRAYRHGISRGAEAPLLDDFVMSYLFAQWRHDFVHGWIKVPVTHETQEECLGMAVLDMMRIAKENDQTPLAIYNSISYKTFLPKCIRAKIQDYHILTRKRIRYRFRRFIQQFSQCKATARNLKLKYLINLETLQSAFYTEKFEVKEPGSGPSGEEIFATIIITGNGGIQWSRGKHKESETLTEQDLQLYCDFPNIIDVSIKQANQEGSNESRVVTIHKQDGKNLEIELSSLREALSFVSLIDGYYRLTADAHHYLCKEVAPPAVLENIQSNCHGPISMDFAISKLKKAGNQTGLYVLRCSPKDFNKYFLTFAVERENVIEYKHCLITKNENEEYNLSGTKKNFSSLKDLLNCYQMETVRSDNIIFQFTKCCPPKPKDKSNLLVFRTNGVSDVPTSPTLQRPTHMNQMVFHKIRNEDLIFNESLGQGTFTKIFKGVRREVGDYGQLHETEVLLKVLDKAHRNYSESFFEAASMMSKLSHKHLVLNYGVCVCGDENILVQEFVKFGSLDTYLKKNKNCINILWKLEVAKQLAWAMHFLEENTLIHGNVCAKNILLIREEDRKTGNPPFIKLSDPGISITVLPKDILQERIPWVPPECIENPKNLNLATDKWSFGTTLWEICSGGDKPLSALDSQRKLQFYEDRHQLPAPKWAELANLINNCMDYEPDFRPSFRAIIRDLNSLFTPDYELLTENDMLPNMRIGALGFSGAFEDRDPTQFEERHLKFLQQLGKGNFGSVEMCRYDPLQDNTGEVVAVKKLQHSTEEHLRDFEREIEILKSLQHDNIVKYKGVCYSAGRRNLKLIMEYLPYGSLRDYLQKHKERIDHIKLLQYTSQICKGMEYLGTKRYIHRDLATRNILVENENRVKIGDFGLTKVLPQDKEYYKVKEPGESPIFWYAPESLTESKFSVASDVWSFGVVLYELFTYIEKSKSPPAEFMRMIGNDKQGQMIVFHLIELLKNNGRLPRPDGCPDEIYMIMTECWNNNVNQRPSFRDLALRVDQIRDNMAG

[14] = Plasma protein binding in rat
[15] = Metabolic stability in rat liver microsomes assessed as compound remaining after 60 mins; assay type: ADME; conditions: read-out: Stability
[16] = Tmax in rat at 5 mg/kg, po; assay type: ADME, organism-based; design: dose 5 mg/kg, route oral; conditions: in vivo
[17] = molecular target: T1, Tyrosine-protein kinase JAK1; test: Inhibition of JAK1 in human whole blood assessed as inhibition of IL-6-induced pSTAT1
[18] = molecular target: Glycogen synthase kinase-3 beta (Homo sapiens, UniProt P49841); test: Inhibition of GSK3beta (unknown origin)
[19] = molecular target: Serine/threonine-protein kinase TBK1 (Homo sapiens, UniProt Q9UHD2); test: Inhibition of TBK1 (unknown origin)
[20] = molecular target: Receptor-interacting serine/threonine-protein kinase 2 (Homo sapiens, UniProt O43353); test: Inhibition of RIPK2 (unknown origin)
[21] = molecular target: Mitogen-activated protein kinase kinase kinase 7 (Homo sapiens, UniProt O43318); test: Inhibition of TAK1 (unknown origin)
[22] = molecular target: Tyrosine-protein kinase Lck (Homo sapiens, UniProt P06239); test: Inhibition of LCK (unknown origin)
[23] = Inhibition of PKA (unknown origin); design: species or system Homo sapiens
[24] = molecular target: T2, Tyrosine-protein kinase JAK2; test: Inhibition of human recombinant JAK2
[25] = molecular target: Tyrosine-protein kinase SYK (Homo sapiens, UniProt P43405); test: Inhibition of SYK (unknown origin)
[26] = molecular target: Cyclin-dependent kinase 2 (Homo sapiens, UniProt P24941); test: Inhibition of CDK2 (unknown origin)
[27] = molecular target: Non-receptor tyrosine-protein kinase TYK2 (Homo sapiens, UniProt P29597); test: Inhibition of human recombinant TYK2
Sequence of Non-receptor tyrosine-protein kinase TYK2 (P29597 whole entry): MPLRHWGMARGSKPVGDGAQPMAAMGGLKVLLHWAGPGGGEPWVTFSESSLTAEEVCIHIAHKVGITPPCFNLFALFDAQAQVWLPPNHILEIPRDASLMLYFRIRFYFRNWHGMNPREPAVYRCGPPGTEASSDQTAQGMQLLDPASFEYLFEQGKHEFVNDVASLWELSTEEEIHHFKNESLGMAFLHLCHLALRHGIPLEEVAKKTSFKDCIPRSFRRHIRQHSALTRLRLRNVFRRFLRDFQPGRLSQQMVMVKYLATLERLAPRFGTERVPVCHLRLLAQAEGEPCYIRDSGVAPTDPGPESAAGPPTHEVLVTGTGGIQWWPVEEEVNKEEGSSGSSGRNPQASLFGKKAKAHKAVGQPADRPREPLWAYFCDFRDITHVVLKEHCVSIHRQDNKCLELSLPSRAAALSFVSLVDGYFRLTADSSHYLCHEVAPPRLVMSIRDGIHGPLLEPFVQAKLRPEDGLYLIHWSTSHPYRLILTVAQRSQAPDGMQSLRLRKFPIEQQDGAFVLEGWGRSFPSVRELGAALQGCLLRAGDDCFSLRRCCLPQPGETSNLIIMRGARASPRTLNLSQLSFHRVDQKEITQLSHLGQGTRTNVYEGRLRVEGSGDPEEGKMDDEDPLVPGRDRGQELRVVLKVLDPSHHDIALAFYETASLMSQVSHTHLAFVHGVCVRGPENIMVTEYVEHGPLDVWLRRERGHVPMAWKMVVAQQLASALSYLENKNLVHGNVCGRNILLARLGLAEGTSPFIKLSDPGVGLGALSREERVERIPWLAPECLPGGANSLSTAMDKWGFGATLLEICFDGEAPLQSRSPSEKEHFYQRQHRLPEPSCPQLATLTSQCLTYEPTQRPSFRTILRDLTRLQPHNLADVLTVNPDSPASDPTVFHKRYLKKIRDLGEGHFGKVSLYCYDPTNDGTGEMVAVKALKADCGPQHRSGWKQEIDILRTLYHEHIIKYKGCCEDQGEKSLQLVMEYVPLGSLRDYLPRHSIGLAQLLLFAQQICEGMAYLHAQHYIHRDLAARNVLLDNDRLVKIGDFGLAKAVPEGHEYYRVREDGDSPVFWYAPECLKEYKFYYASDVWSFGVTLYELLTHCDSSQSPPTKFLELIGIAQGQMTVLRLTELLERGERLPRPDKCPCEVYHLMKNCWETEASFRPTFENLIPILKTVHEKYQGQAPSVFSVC

[28] = molecular target: Mitogen-activated protein kinase 14 (Homo sapiens, UniProt Q16539); test: Inhibition of p38alpha (unknown origin)
Sequence of Mitogen-activated protein kinase 14 (Q16539 whole entry): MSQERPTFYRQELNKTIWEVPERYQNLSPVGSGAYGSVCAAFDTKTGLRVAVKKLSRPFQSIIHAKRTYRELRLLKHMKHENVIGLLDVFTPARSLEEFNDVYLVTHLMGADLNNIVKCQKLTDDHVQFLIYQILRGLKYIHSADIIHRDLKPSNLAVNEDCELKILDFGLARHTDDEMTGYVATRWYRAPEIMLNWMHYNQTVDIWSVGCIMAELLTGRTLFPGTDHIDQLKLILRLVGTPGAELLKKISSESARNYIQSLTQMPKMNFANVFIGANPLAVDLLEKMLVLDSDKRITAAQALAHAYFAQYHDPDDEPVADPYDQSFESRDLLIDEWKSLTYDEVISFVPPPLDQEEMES

[29] = molecular target: Rho-associated protein kinase 1 (Homo sapiens, UniProt Q13464); test: Inhibition of ROCK1 (unknown origin)
[30] = molecular target: Protein-tyrosine kinase 2-beta (Homo sapiens, UniProt Q14289); test: Inhibition of PYK2 (unknown origin)
[31] = molecular target: MAP kinase-activated protein kinase 5 (Homo sapiens, UniProt Q8IW41); test: Inhibition of MAPKAPK5 (unknown origin)
Sequence of MAP kinase-activated protein kinase 5 (Q8IW41 whole entry): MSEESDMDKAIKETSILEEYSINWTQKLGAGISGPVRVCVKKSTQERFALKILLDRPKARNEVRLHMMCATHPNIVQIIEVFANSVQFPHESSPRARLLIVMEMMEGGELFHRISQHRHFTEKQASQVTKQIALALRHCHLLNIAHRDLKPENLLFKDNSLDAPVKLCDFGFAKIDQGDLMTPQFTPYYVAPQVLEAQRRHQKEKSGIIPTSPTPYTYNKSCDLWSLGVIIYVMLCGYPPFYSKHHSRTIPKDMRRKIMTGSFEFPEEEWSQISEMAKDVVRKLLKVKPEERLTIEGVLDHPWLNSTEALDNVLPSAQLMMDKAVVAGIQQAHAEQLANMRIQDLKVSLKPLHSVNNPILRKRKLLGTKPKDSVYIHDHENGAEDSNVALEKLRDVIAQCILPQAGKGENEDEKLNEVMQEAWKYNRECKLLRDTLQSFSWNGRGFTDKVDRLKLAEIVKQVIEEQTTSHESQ

[32] = molecular target: Inhibitor of nuclear factor kappa-B kinase subunit beta (Homo sapiens, UniProt O14920); test: Inhibition of IKKbeta (unknown origin)
Sequence of Inhibitor of nuclear factor kappa-B kinase subunit beta (O14920 whole entry): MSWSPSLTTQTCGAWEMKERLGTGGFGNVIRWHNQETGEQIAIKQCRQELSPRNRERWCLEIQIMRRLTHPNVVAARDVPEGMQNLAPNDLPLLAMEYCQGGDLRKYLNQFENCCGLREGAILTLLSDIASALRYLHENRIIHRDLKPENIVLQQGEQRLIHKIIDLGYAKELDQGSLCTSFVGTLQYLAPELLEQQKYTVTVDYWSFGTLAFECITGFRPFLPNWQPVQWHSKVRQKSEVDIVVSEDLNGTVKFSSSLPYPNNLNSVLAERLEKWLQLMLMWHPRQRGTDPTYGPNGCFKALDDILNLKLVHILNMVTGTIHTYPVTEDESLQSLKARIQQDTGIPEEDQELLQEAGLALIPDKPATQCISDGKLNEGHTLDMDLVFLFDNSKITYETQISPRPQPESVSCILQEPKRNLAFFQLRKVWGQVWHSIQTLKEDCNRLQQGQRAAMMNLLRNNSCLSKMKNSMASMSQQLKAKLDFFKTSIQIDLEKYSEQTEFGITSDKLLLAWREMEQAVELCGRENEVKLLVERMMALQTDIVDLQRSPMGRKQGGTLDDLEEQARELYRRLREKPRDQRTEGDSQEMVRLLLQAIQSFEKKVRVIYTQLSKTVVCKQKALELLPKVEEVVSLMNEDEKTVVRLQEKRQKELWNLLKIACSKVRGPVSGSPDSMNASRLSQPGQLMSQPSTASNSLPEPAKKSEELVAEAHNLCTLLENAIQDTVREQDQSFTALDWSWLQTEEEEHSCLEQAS

[33] = molecular target: Tyrosine-protein kinase JAK3 (Homo sapiens, UniProt P52333); test: Inhibition of human recombinant JAK3
[34] = molecular target: Fibroblast growth factor receptor 3 (Homo sapiens, UniProt P22607); test: Inhibition of FGFR3 (unknown origin)

T1 sequence (P23458 whole entry): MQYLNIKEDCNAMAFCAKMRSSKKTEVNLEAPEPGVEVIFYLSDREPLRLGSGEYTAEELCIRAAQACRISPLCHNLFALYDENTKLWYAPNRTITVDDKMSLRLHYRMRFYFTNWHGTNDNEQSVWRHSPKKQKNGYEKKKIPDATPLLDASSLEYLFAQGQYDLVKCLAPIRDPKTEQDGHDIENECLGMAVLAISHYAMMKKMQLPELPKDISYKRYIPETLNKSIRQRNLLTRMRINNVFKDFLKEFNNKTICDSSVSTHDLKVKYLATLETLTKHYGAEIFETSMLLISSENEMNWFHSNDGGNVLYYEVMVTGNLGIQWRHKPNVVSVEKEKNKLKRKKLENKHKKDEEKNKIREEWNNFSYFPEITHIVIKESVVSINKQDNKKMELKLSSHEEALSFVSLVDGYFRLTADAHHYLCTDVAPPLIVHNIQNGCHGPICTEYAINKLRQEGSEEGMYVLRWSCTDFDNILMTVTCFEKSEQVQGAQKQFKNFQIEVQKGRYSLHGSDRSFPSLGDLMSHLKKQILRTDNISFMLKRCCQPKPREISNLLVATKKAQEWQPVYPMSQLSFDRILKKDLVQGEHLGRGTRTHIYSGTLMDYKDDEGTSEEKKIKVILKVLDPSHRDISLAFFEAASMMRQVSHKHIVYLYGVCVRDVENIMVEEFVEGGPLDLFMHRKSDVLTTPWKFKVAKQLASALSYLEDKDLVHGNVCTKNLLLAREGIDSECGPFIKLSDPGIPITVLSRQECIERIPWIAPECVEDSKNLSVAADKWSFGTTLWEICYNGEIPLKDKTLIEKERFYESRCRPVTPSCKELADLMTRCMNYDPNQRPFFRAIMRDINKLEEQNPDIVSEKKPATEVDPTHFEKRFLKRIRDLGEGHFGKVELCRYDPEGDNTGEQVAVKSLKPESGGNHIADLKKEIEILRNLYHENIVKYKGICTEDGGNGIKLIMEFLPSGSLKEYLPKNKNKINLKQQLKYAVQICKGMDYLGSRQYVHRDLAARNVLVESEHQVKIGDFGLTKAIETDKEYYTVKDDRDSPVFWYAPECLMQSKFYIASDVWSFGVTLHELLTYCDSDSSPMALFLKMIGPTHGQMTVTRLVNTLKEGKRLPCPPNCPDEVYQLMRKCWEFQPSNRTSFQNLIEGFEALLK

Row | IC50 ([1]; read-out: IC50) [µM] | Ratio IC50 (Homo sapiens [2]) | Ratio IC50 (Homo sapiens [3]) | Ratio IC50 (Homo sapiens [4]) | Compound | other results
1 | 0.572 | 2.8 | 0.9 | 3.8 | COCc1cccc(-c2cccc3nc(NC(=O)C4CC4)nn23)c1 | –
2 | 0.184 | 4.1 | 2.3 | 7.1 | O=C(Nc1nc2cccc(-c3ccccc3)n2n1)C1CC1 | –
3 | 0.547 | 6.2 | 1.5 | 4.4 | COc1ccc(-c2cccc3nc(NC(=O)C4CC4)nn23)cn1 | –
4 | 3.01 | – | > 1 | – | CCOc1ccc(-c2c(OC)ccc3nc(NC(=O)C4CC4)nn23)cc1 | –
5 | > 4 | – | – | – | CN1CCN(Cc2ccc(-c3cccc4nc(NC(=O)C5CC5)nn34)cc2)CC1 | –
6 | 0.0083 | – | 1.7 | – | O=C(Nc1nc2cccc(-c3ccc(Cc4ccc(O)c(CO)c4)cc3)n2n1)C1CC1 | solubility kinetic [5]: 28 µg/mL (≈ 67.6 µM)
7 | > 10 | – | – | – | CC(C)(C)OCc1ccccc1-c1cccc2nc(NC(=O)C3CC3)nn12 | –
8 | 0.067 | – | 2.2 | – | CCOc1ccc(-c2cccn3nc(NC(=O)C4CC4)nc23)cc1 | –
9 | 0.142 | 2.4 | 1.1 | 6.7 | O=C(Nc1nc2cccc(-c3cccc(Cl)c3)n2n1)C1CC1 | –
10 | 0.975 | > 4.1 | 2.1 | > 4.1 | COc1ncc(-c2cccc3nc(NC(=O)C4CC4)nn23)cn1 | –
11 | 0.027 | – | 2 | – | CCOc1ccc(-c2cccc3nc(NC(=O)C4CC4)nn23)cc1 | –
12 | 0.016 | 6.2 | 2.6 | 9.5 | O=C(Nc1nc2cccc(-c3ccc(CNC(=O)C(F)(F)F)cc3)n2n1)C1CC1 | IC50 [17]: 4.47 µM; solubility kinetic [5]: > 80 µg/mL; IC50 [13]: > 30 µM; fraction unbound [14]: 0.17; remaining at 1 h [15]: 80%
13 | 1.35 | > 3 | 1.1 | 2.1 | O=C(Nc1nc2cccc(-c3cn[nH]c3)n2n1)C1CC1 | –
14 | 0.371 | 2.8 | 1.5 | 2 | COc1ccccc1-c1cccc2nc(NC(=O)C3CC3)nn12 | –
15 | 0.103 | 18 | 1 | 3 | O=C(Nc1nc2cccc(-c3cccc(OCc4ccccc4)c3)n2n1)C1CC1 | –
16 | 0.418 | – | 1.5 | – | CCOc1ccc(-c2nccc3nc(NC(=O)C4CC4)nn23)cc1 | –
17 | 0.07 | 7.4 | 2 | 7.5 | COc1ccc(-c2cccc3nc(NC(=O)C4CC4)nn23)cc1 | IC50 [18]: 7.11 µM; IC50 [19]: > 4 µM; IC50 [20]: 51 µM; IC50 [21]: > 10 µM; IC50 [22]: 4.44 µM; IC50 [23]: 40 µM; IC50 [24]: 0.138 µM; IC50 [25]: 2.27 µM; IC50 [26]: > 10 µM; IC50 [27]: 0.519 µM; IC50 [28]: > 10 µM; IC50 [29]: > 10 µM; IC50 [30]: 3.18 µM; IC50 [31]: > 10 µM; IC50 [32]: 24.7 µM; IC50 [33]: 0.528 µM; IC50 [34]: > 5.74 µM
18 | 0.156 | 28.2 | 3.1 | 7.4 | O=C(Nc1nc2cccc(-c3ccc(Cl)cc3)n2n1)C1CC1 | –
19 | 0.041 | 9.6 | 2.1 | 8 | O=C(Nc1nc2cccc(-c3ccc(CNC4CCS(=O)(=O)C4)cc3)n2n1)C1CC1 (stereo not given) | IC50 [17]: 6.15 µM; solubility kinetic [5]: > 85 µg/mL; IC50 [13]: > 30 µM; remaining at 1 h [15]: 85%
20 | 0.0014 | 9 | 11.4 | 26 | N#CCc1ccccc1NCc1ccc(-c2cccc3nc(NC(=O)C4CC4)nn23)cc1 | solubility kinetic [5]: 9.4 µg/mL (≈ 22.2 µM); fraction unbound [14]: 0.01
21 | 2.55 | > 1.6 | 0.7 | 1.5 | O=C(Nc1nc2cccc(-c3cccc4ncccc34)n2n1)C1CC1 | –
22 | 3.1 | – | 1 | – | CCOc1ccc(-c2cncc3nc(NC(=O)C4CC4)nn23)cc1 | –
23 | 0.027 | 3.2 | 1.1 | 8.7 | O=C(Nc1nc2cccc(-c3ccc(CN4CCC(F)(F)CC4)cc3)n2n1)C1CC1 | IC50 [17]: 2.75 µM; half-life [9]: 55.2 min; solubility kinetic [5]: 27 µg/mL (≈ 65.6 µM); AUC(0-inf) [12]: 690 ng·h/mL; IC50 [13]: > 10 µM; fraction unbound [14]: 0.3; remaining at 1 h [15]: 26%; Tmax [16]: 15 min

More lines, now with the values behind:

Row | Compound | IC50 ([1]; read-out: IC50) [µM] | Ratio IC50 (Homo sapiens [2]) | Ratio IC50 (Homo sapiens [3]) | Ratio IC50 (Homo sapiens [4]) | other results
24 | COc1ccc(-c2cccc3nc(N4CCCCC4)nn23)cc1 | > 10 | – | – | – | –
25 | COc1ccc(-c2cccc3nc(NC(=O)c4ccccc4)nn23)cc1 | > 10 | – | – | – | –
26 | CCC(=O)Nc1nc2cccc(-c3ccc(OC)cc3)n2n1 | 1.98 | – | 0.5 | – | –
27 | COc1ccc(-c2cccc3nc(NC(=O)C4(C)CC4)nn23)cc1 | > 10 | – | – | – | –
28 | COc1ccc(-c2cccc3nc(Nc4ccc(NC(C)=O)cc4)nn23)cc1 | 0.0028 | – | 0.9 | – | –
29 | COc1ccc(-c2cccc3nc(N)nn23)cc1 | 3.06 | – | 0.6 | – | –
30 | CNC(=O)Nc1nc2cccc(-c3ccc(OC)cc3)n2n1 | 0.413 | – | 0.7 | – | –
31 | COc1ccc(-c2cccc3nc(NC(=O)C(C)C)nn23)cc1 | > 10 | – | – | – | –
32 | COc1ccc(-c2cccc3nc(NC(C)=O)nn23)cc1 | > 4 | – | – | – | –
33 | COc1ccc(-c2cccc3nc(N(C)C(=O)C4CC4)nn23)cc1 | > 10 | – | – | – | –
34 | O=C(Nc1nc2cccc(-c3ccc(CN4CCOCC4)cc3)n2n1)C1CC1 | – | – | – | – | bioavailability [6]: 62%; clearance [7]: 35.3 mL/min/kg; bioavailability [8]: 45%; half-life [9]: 55.2 min; half-life [10]: 44.4 min; solubility kinetic [5]: > 38 µg/mL; AUC(0-inf) [11]: 470 ng·h/mL; AUC(0-inf) [12]: 1440 ng·h/mL; IC50 [13]: > 30 µM; fraction unbound [14]: 0.29; remaining at 1 h [15]: 38%; Tmax [16]: 19.8 min
35 | COc1ccc(-c2cccc3nc(NS(=O)(=O)C4CC4)nn23)cc1 | 5.74 | – | – | – | –
36 | O=C(NCCc1ccn(-c2ccccc2)n1)c1ccc(-c2cccc3nc(NC(=O)C4CC4)nn23)cc1 | 0.0006 | 66 | 5.3 | 21 | solubility kinetic [5]: 4 µg/mL (≈ 8.14 µM); fraction unbound [14]: 0.01
37 | COc1ccc(-c2cccc3nc(N(C)C)nn23)cc1 | > 10 | – | – | – | –
38 | COc1ccc(-c2cc(C(F)(F)F)cn3nc(NC(=O)C4CC4)nc23)cc1 | – | – | – | – | IC50 [1]: Not Active
39 | N#Cc1ccc(OCC2CN(c3ccc(-c4cccc5nc(NC(=O)C6CC6)nn45)cc3)C2)cc1 | 0.147 | – | 7.5 | – | –
40 | C[C@@H]1CCN(C(=O)CC#N)C[C@@H]1N(C)c1ncnc2[nH]ccc12 [TOFACITINIB] | – | – | – | – | remaining at 1 h [15]: 27%
41 | O=C(Nc1nc2nccc(-c3ccccc3)n2n1)C1CC1 | – | – | – | – | IC50 [1]: Not Active
42 | COc1ccc(-c2cccc3nc(-c4cccnc4)nn23)cc1 | > 10 | – | – | – | –
43 | COc1ccc(-c2cccc3nc(NCC4CC4)nn23)cc1 | > 10 | – | – | – | –
44 | O=C(Nc1nc2cccc(-c3ccc(NS(=O)(=O)C4CC4)cc3)n2n1)C1CC1 | – | – | – | – | fraction unbound [14]: 0.1
45 | Nc1nc2cccc(-c3ccc(CN4CCS(=O)(=O)CC4)cc3)n2n1 | – | – | – | – | IC50 [17]: 11.9 µM; IC50 [13]: > 100 µM
